Laboratory results reported in patent US9173935B2, “Phospholipid drug analogs” (Telormedix SA, priority 2010, dated 2015).
Read-outs that look alike come from different tables or passages of the source.

How the values were obtained:
CYP2E1 = CYP2E1 (Homo sapiens (Human), UniProt P05181); experiment: Fluorescent High Throughput P450 assay, CYP2E1; assay type: biochemical; conditions: substrate MFC; read-out: CYP2E1 IC50 (Mean ± S.D.)
Protocol: Inhibition of the P450 isoforms was measured in specific assays using specific substrates that become fluorescent upon CYP metabolism. Compounds, dissolved in ACN (acetonitrile) (CYP2E1, CYP2C8, CYP2B6, CYP3A5) or DMSO (all remaining isoforms), were tested in duplicate (n=2) in concentration-response curves (eight concentrations) in a 96-well plate containing incubation/NADPH regenerating buffer. Specific isoenzymes and substrates were added and incubated at 37° C. Reactions were terminated at different times, depending on the assays, and plates read on a Fluoroskan Ascent at the appropriate emission/excitation wavelengths. Concentration-response curves performed in duplicate for known inhibitors for each isoenzyme were tested in every assay as positive control.

[1] = test system: AY-27 rat bladder cancer cell-line
[2] = test system: Raw264.7 mouse macrophage cell line; experiment: IL-6 and TNF-alpha secretion in Raw264.7 cells (ELISA); assay type: cell-based; conditions: Mus musculus, RAW264.7, 24 hours treatment, 7 doses
Protocol: EC50 values were determined for control and each drug candidate for IL-6 and TNF-alpha secretion. […] The cells were plated in 96 well plates and treated with TLR7 agonists for 24 hours in 7 doses. The conditioned media was removed after 24 hours for ELISA analyses. The cells were subsequently assayed for viability using the XTT assay according to the guidelines from the supplier. […] The experiment was performed in quadruplicate wells for each testing series, and the supernatant pooled and measured by ELISA in triplicates. Concentrations of IL-6 and TNF-alpha were determined by ELISA from R&D Systems using the Microsoft Excel Software. The results were analyzed in Graph Pad Prism in order to prepare dose-response curves, and for determination of EC50 values.

whole blood = experiment: Cytokine secretion in human whole blood assay (ELISA); assay type: cell-based
Protocol: A volume of approximately 55 mL fresh whole blood was drawn in heparinized Vacutainers from three healthy adult anonymous volunteers as described (J. A. Ida, Journal of Immunol Methods, 310, 2006, 86-99). […] Before drawing the blood, the compounds were added to 96 well round bottom plates in a 10× diluted sample at 20 ul. The compounds were diluted in RPMI media without serum but with antibiotics. Antibiotics were added at a 10× concentration. After drawing the blood, the whole blood sample was gently mixed to obtain a homogeneous sample, and 180 ul was added to each well.
After 6 hours and 24 hours incubation, plasma was removed for ELISA (IL-6, IL-10, IL-12p40 and IFN-alpha). ELISA was made at the 6 and 24 hours time point for all concentrations. After 24 hours incubation with selected compound concentrations, cells were analyzed for activation markers by FACS.
All compounds were setup in concentrations at 0-0.01-0.03-0.1-0.5-2.0-10.0 micromolar as the final concentration. Vehicle control was DMSO control, where we used the highest concentration used for the compounds. After addition of blood, all plates were gently agitated at 37° C. and 5% CO2 until harvest. The samples were removed after 6 or 24 hours incubation, and pooled into appropriate tubes (2 ml).
Concentrations of cytokines were determined by ELISA from R&D Systems. The results were analyzed in Graph Pad Prism in order to prepare dose-response
curves, and for determination of EC50 values. FACS analysis was made by using Becton-Dickinson FACSDiva software and subsequently illustrated in Graph Pad Prism.

PBMCs = experiment: IL-6 and TNF-alpha secretion in PBMCs from three donors (ELISA); assay type: cell-based, human; conditions: Homo sapiens, PBMC
Protocol: EC50 values were determined for control and each drug candidate for IL-6 and TNF-alpha secretion. […] The cells were treated with TLR7 agonists for 24 hours in 7 doses. The conditioned media was removed for ELISA analyses for IL-6 and TNF-alpha, and cell survival determined by the XTT method according to the protocol from the supplier. […] Concentrations of IL-6 and TNF-alpha were determined by ELISA from R&D Systems using the Microsoft Excel Software. The results were analyzed in Graph Pad Prism in order to prepare dose-response curves, and for determination of EC50 values.

[3] = test system: receptors associated with pain-related syndromes (e.g. adenosine and sodium channel); experiment: Radioligand binding assay among 73 primary molecular targets; conditions: SC12 at fixed concentration of 30 microM
human PBMCs = experiment: IL-6 secretion in human PBMCs, two batches of Compound A and SC12; assay type: cell-based; conditions: Homo sapiens, PBMC, 24 h
Protocol: PBMCs were purified from two donors and plated into 96 well plates at 2×10^5 cells/well in RPMI media including human 2% heat inactivated AB serum, glutamine, Pen-strep and R-mercapto-ethanol. The cells were treated with TLR7 agonists for 24 h in 4 doses. The conditioned media was removed for ELISA analyses for IL-6, and the EC50 value determined for each compound and each batch.
All compounds were tested in four concentrations (10-1-0.1-0.01 micromolar).
Concentrations of IL-6 were determined by ELISA from R&D Systems using the Microsoft Excel software. The results were analyzed in Graph Pad Prism in order to prepare dose-response curves, and for determination of EC50 values.

[4] = test system: HLA-DR+/CD11c+/CD123- mDCs; experiment: FACS analysis of myeloid DC activation in whole blood; assay type: cell-based, human; conditions: 24 hours, 0.1 and 0.5 uM, three donors
Protocol: (§1) A flow cytometric analysis was performed on whole blood from three donors after treatment with two compound concentrations for 24 h. The FACS analysis for donor 1 and donor 2 was made on another day than donor 3. The compound concentrations were as follows:
(§2) The FACS analysis was used to identify whether the test compounds could induce activation of B cells, and two different subsets of dendritic cells, namely the myeloid CD11c+/CD123− DCs and the plasmacytoid CD11c−/CD123+ DCs. The following markers were studied to identify the activation status of the different subsets:
(§3) The FACS staining was performed according to the manufacturer's instructions. Lysis of red blood cells was performed before FACS staining in order to minimize auto-florescence. To include as many B cells and DCs in the study as possible the FACS analyses were performed on 500,000 cells in total for each staining. A P1 gate was set only to include relevant cells on FSC vs. SSC (see FIGS. 12-15). The results of the individual analysis were present as Mean Fluorescence Intensity
The analysis of myeloid DCs was based on HLA-DR+/CD11c+/CD123-cells, thus all analyzed cells was included in the HLA-DR+ (P3) gate and CD11c+/CD123− (Q4) gate (see gates in FIGS. 13-15).

HLA-DR+/CD20+ B cells = experiment: FACS analysis of B cell activation (CD40) in whole blood; assay type: cell-based, human; conditions: 24 hours, 2 and 10 uM, three donors
Protocol: as §1
B cell activation: 2 and 10 uM
as §2, §3
The analysis of expression of the activation marker CD40 on B cells was made on double positive HLA-DR (MHC class II) (P4 gate) and CD20 cells (B cell marker) (P8 gate).

[5] = day 12, group 1 Imiquimod 0.1%, group 2 SC12 0.38%

Chain of CYP2E1 (P05181 whole entry, looked up): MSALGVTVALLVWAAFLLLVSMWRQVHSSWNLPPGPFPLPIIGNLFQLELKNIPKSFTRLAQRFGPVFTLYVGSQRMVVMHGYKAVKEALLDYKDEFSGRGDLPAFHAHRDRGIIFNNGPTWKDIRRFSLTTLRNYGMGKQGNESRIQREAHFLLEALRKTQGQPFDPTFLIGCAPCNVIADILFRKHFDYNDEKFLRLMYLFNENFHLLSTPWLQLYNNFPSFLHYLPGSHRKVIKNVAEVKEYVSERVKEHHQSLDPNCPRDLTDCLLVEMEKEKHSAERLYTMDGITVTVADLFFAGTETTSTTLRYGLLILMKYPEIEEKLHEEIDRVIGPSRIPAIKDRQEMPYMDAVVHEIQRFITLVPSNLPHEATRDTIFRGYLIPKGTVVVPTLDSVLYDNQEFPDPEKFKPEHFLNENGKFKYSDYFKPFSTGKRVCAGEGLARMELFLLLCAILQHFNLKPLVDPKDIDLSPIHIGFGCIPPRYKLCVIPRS

CCN(CC)C(=S)S [DDTC, reference compound]
IC50 (CYP2E1): 0.85 ± 0.01 µM

CC(C)Cn1cnc2c(N)nc3ccccc3c21 [Imiquimod, reference compound]
Number of rats with a tumor positive bladder ([1]; day 12): 9 of 14 | Rats with pT2 Tumor, number (% of 14) [1, 5]: 9 (64.3%) | Tumor free rats, number (% of 14) [1, 5]: 5 (35.7%) | Mean weight of the rat bladders ([1]; day 12, intravesical 0.5 ml on day 2 and 5, group 1 Imiquimod 0.1%, group 2 SC12 0.38%): 0.1201 grams | Mean number of tumors per rat bladder ([1]; group 1 Imiquimod 0.1%, group 2 SC12 0.38%): 1.71 | Signs of toxicity ([1]; intravesical instillation day 2 and 5): No signs of toxicity | Mean invasion depth ([1]; tumor positive bladders, group 1 Imiquimod 0.1%, group 2 SC12 0.38%): 1.3333 mm | EC50 ([2]; read-out: EC 50 IL 6): 2 µM | EC50 ([2]; read-out: EC 50 TNF-alpha): 2.16 µM | IL-6 secretion induced (whole blood; 6 h incubation, up to 10.0 micromolar): low and insignificant amounts of IL-6 | IFN-alpha secretion induced (whole blood; 6 hours incubation): did not induce IFN-alpha secretion | IL-10 production (whole blood; 6 hours incubation): no IL-10 production was seen | IL-12p40 secretion induced (whole blood; 6 hours incubation): did not induce IL-12p40 secretion | IL-12p40 secretion induced (whole blood; 24 hours incubation): did not induce IL-12p40 | EC50 (PBMCs; 24 h, Donor 1, 24 hours, read-out: IL-6 secretion MC50): 6.35 µM | EC50 (PBMCs; 24 h, Donor 1, 24 hours, read-out: TNFa secretion MC50): 3.07 µM | EC50 (PBMCs; 24 h, Donor 2, 24 hours, read-out: IL-6 secretion MC50): 1.99 µM | EC50 (PBMCs; 24 h, Donor 2, 24 hours, read-out: TNFa secretion MC50): 24.9 µM | EC50 (PBMCs; 24 h, Donor 3, 24 hours, read-out: IL-6 secretion MC50): 4.64 µM | EC50 (PBMCs; 24 h, Donor 3, 24 hours, read-out: TNFa secretion MC50): 22.4 µM | EC50 (PBMCs; D1, first experiments on three donors, read-out: EC50 values, IL-6 secretion): 6.35 µM | EC50 (PBMCs; D2, first experiments on three donors, read-out: EC50 values, IL-6 secretion): 1.99 µM | EC50 (PBMCs; D3, first experiments on three donors, read-out: EC50 values, IL-6 secretion): 4.64 µM | EC50 (PBMCs; average of three donors, read-out: IL-6 secretion Average EC50): 4.33 µM | EC50 (PBMCs; average of three donors, read-out: TNFa secretion Average EC50): 16.8 µM | Binding to receptors associated with pain-related syndromes [3]: shown to bind | EC50 (human PBMCs; Donor 1, 4 doses): 18 µM | EC50 (human PBMCs; Donor 2, 4 doses): 18.4 µM | CCR7 expression on mDCs [4]: showed high CCR7 expression | CD80 expression on mDCs [4]: weak expression of CD80 in donor 1 and 2 | CD40 expression (MFI) on B cells (HLA-DR+/CD20+ B cells): increased expression in all three donors
